Test [1] addresses Serine/threonine-protein kinase PLK1 (Homo sapiens, UniProt P53350). The experiment in a line: Inhibition of PLK1 after 75 mins at room temperature by caliper method.
Test [2] addresses T1, Serine/threonine-protein kinase Nek2 (Homo sapiens, UniProt P51955).
T1 sequence (P51955 whole entry): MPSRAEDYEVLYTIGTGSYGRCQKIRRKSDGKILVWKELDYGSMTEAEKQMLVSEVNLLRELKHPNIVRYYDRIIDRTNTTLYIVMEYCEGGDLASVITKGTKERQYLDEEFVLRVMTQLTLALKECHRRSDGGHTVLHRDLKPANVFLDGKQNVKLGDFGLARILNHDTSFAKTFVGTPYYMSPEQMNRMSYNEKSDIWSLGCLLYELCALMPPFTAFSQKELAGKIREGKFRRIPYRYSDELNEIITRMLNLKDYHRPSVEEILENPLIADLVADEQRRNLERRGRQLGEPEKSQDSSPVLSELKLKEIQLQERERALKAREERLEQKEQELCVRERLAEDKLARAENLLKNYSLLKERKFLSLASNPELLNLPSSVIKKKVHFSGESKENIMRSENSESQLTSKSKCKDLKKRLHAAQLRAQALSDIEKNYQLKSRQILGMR
Description: Inhibition of NEK2 autophosphorylation after 2 hrs by DELFIA assay

The target in test [3] is T2, Serine/threonine-protein kinase Chk1 (Homo sapiens, UniProt O14757).
T2 sequence (O14757 whole entry): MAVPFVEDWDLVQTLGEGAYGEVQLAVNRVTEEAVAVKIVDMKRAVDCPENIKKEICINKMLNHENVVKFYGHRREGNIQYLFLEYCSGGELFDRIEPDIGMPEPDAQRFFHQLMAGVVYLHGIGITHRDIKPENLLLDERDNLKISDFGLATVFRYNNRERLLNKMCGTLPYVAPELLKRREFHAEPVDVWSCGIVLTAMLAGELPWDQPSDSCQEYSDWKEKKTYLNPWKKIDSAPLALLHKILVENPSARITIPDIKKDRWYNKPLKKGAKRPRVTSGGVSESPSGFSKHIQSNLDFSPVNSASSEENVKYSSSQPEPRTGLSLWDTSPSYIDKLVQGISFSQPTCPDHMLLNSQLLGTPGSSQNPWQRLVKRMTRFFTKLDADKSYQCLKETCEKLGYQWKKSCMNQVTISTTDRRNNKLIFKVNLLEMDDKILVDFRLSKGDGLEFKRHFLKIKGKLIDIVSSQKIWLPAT
The experiment in a line: Inhibition of CHK1.

Test [4] has as its target T1, Serine/threonine-protein kinase Nek2. This is another data set of the same source.
Description: Inhibition of NEK2 assessed as inhibition of substrate phosphorylation
Test [5] has as its target T3, Serine/threonine-protein kinase Nek1 (Homo sapiens, UniProt Q96PY6).
T3 sequence (Q96PY6 whole entry): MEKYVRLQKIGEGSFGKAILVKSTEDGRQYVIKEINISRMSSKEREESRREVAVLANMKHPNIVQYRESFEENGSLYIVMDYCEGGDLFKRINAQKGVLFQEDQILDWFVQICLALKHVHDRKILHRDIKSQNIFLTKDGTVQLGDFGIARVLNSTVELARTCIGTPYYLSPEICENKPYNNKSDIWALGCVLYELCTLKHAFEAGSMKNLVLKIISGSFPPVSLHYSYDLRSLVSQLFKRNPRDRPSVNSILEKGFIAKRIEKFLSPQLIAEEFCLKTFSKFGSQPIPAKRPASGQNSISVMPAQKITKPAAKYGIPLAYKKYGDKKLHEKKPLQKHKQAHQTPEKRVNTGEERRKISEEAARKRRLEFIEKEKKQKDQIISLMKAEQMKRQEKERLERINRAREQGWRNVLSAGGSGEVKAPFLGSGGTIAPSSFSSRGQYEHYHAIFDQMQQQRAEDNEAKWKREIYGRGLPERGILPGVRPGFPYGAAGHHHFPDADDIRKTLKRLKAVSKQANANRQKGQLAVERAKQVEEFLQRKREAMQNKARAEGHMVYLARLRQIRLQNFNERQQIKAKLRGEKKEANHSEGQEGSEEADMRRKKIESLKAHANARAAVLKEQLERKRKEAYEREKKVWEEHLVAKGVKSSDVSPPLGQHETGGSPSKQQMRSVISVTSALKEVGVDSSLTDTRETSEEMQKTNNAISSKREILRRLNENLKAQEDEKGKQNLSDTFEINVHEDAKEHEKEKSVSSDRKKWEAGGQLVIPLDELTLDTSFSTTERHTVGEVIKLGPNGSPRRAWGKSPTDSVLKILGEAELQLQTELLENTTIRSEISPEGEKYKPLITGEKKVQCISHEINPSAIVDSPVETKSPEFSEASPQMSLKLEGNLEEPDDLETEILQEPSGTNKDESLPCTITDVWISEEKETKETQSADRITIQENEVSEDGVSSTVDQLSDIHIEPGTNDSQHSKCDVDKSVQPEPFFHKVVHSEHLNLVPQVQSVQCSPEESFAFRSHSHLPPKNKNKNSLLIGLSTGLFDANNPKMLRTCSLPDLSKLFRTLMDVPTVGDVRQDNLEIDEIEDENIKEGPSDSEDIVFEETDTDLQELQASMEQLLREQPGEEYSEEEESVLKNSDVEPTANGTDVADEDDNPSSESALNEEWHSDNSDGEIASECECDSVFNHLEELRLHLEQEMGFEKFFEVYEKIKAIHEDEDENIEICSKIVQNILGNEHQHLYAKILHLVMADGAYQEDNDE
Description: Inhibition of NEK1 after 1 hr at room temperature by caliper method.

Test [6] concerns the target T1, Serine/threonine-protein kinase Nek2. This is another data set of the same source.
Description: Inhibition of NEK2 by microfluidic assay

Structures are written as SMILES.

Serine/threonine-protein kinase PLK1, sequence (P53350 whole entry): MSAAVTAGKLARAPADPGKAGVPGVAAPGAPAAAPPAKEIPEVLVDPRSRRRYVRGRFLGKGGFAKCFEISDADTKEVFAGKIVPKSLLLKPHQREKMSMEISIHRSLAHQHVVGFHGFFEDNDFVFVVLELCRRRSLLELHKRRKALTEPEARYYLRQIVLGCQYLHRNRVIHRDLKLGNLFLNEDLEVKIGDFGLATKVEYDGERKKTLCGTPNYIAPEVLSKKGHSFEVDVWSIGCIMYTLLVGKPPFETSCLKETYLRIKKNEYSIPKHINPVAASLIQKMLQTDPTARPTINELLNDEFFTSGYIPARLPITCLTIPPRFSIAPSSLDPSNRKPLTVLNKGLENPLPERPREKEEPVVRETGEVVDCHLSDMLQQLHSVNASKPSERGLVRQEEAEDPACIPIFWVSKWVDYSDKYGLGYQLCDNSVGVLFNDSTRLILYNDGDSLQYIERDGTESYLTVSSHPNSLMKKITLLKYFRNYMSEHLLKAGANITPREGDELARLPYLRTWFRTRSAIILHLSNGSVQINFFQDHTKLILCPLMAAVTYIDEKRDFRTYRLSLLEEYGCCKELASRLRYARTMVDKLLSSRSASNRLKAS

As usually defined, the IC50 is the concentration needed to halve the response being measured. Lower therefore signals greater potency. With `CCc1ccsc1-c1cnc(N)c(N2CCC(C(=O)O)CC2)n1`, the IC50 is 8.5 µM in test [1]; 0.72 µM in test [2]; greater than 100 µM in test [3]; 1.9 µM in test [4]; 22.5 µM in test [5]; 2.1 µM in test [6].

Take `COc1ccc(-c2cnc(N)c(N3CCC(C(=O)O)CC3)n2)cc1OC`: the IC50 in test [6] came out at 1.9 µM.

`Nc1ncc(-c2ccsc2)nc1N1CCC(C(=O)O)CC1` registered an IC50 in test [6] of 7.2 µM.

For `Nc1ncc(-c2ccccc2)nc1N1CCC(C(=O)O)CC1`, in test [6], the half-maximal inhibitory concentration (IC50) was determined as 7.8 µM.

Compound `COc1cc(-c2cnc(N)c(N3CC[C@H](C(=O)O)[C@@H](C)C3)n2)cc(OC)c1OC` (racemic) yielded an IC50 in test [6] of 2.7 µM.

Take `COc1cc(-c2cnc(N)c(N3CC[C@@H](C(=O)O)[C@@H](C)[C@H]3C)n2)cc(OC)c1OC`: the values for the IC50 in test [1], in test [3] and in test [5] were 19.4 µM, greater than 100 µM and 0.17 µM, respectively.

The compound `Nc1ncc(-c2cccs2)nc1N1CCC(C(=O)O)CC1` had an IC50 in test [6] of 4.3 µM. In other words, the single-digit micromolar range.

As for `COc1cc(-c2cnc(N)c(-c3ccc(C(=O)O)cc3)n2)cc(OC)c1OC`, the IC50 in test [2] was determined as 0.71 µM; in test [4], 1.6 µM.

As to `COc1cc(-c2cnc(N)c(N3CCCCC3)n2)cc(OC)c1OC`, the concentration for half-maximal inhibition (IC50) in test [6] was greater than 50 µM.

As to `COc1cc(-c2cnc(N)c(N3CC[C@H](C(=O)O)[C@H](C)C3)n2)cc(OC)c1OC`, in test [6], the IC50 turned out to be 10.8 µM.

As to `COc1cc(OC)cc(-c2cnc(N)c(N3CCC(C(=O)O)CC3)n2)c1`, the IC50 in test [6] is 1.9 µM. Compared with the last compound, the IC50 is about 5.7-fold lower.

Compound `COc1cc(-c2cnc(N)c(N3CC[C@@H](C(=O)O)C[C@H]3C)n2)cc(OC)c1OC` (racemic) showed an IC50 in test [6] of 1.2 µM.

With `COc1cc(-c2cnc(N)c(N3CC[C@@H](C(=O)O)[C@@H](C)C3)n2)cc(OC)c1OC`, in test [6], the midpoint of inhibition, the IC50, lay at 0.39 µM. Against the preceding compound, the IC50 is about 3.1-fold lower.

Turning to `COc1cc(-c2cnc(N)c(-c3ccc(C(=O)O)cc3C)n2)cc(OC)c1OC`, the IC50 in test [6] is greater than 50 µM.

For the compound `CCC[C@H]1CN(c2nc(-c3cc(OC)c(OC)c(OC)c3)cnc2N)CC[C@H]1C(=O)O` (racemic), the IC50 in test [6] was found to be 11.2 µM.

For `CC[C@@H]1C[C@H](C(=O)O)CCN1c1nc(-c2cc(OC)c(OC)c(OC)c2)cnc1N` (racemic), the IC50 in test [6] came out at 1.4 µM.

The compound `COC(=O)C1CCN(c2nc(-c3cc(OC)c(OC)c(OC)c3)cnc2N)CC1` displayed an IC50 in test [6] of 18.3 µM.

`COc1cc(-c2cnc(N)c(N3CC[C@@H](C(=O)O)C[C@H]3C(C)C)n2)cc(OC)c1OC` (racemic) returned an IC50 in test [6] of 5.9 µM.

In test [6], `COc1cc(-c2cnc(N)c(N3CCC(C(N)=O)CC3)n2)cc(OC)c1OC` came in with an IC50 of 5.7 µM. The IC50 values of the last two compounds are within 1.5-fold of each other.

`CCc1cc(-c2nc(-c3cc(OC)c(OC)c(OC)c3)cnc2N)ccc1C(=O)O` had an IC50 in test [6] of 26.2 µM. This IC50 is about 4.6-fold higher than that of the compound before.

`COc1ccc(-c2cnc(N)c(N3CCC(C(=O)O)CC3)n2)cc1` gave an IC50 in test [6] of 19.8 µM.

In turn, `Nc1ncc(-c2sccc2C2CCCC2)nc1N1CCC(C(=O)O)CC1` registered an IC50 in test [6] of 3.4 µM.

Take `COc1cc(-c2cnc(N)c(N3CCC(C(=O)O)CC3)n2)cc(OC)c1OC`: the IC50 was 22.6 µM in test [1], greater than 100 µM in test [3] and 2.6 µM in test [5].

The compound `Nc1nccnc1N1CCC(C(=O)O)CC1` gave an IC50 in test [6] of 48.5 µM.

Turning to `COc1cc(-c2cnc(N)c(N3CC[C@@H](C(=O)O)[C@@H](C)C3)n2)cc(OC)c1OC` (racemic), in test [6], the IC50 was 0.72 µM.

`CCC[C@@H]1C[C@H](C(=O)O)CCN1c1nc(-c2cc(OC)c(OC)c(OC)c2)cnc1N` (racemic) came in with an IC50 in test [6] of 5.4 µM.

Regarding `COc1cc(-c2cnc(N)c(N3CC[C@@H](C(=O)O)[C@@H](C4CC4)C3)n2)cc(OC)c1OC` (racemic), the IC50 in test [6] was 38.3 µM.

On to `CC[C@H]1CN(c2nc(-c3cc(OC)c(OC)c(OC)c3)cnc2N)CC[C@@H]1C(=O)O` (racemic), for which the IC50 in test [6] was found to be 11.3 µM.

`Nc1ncc(-c2sccc2C2CC2)nc1N1CCC(C(=O)O)CC1` showed an IC50 in test [6] of 1.6 µM.

Source of the values: ChEMBL document CHEMBL1275342 (J Med Chem, 2010).
